Laboratory results from BindingDB's records for doi:10.7270/Q23F4N3R (Burnham Center For Chemical Genomics, 2011).
Where a SMILES comes first, the peptide text is derived from it. Bridges are numbered along the chain shown (N, C = ends). [ ]: non-standard residue; d: D form. The star is where a group is joined. X1 = CCC(C)C(N)C1=NC(C(=O)*)CS1; dOrn = NCCC[C@@H](N)C(=O)O

Experiment: hexokinase 1 inhibition, dose response, selectivity assay for HKDC1 inhibitor project, biochemical (AID 504763)
Settings: not given

Row | SMILES | IC50 [µM]
1 | Oc1c(Cl)c(N=CCc2ccccc2)c(O)c2ccccc12 [MLS002608293] | 18.5
2 | CCOc1ccc(-n2c(C)cc(C(=O)CCl)c2C)cc1 [2-chloranyl-1-[1-(4-ethoxyphenyl)-2,5-dimethyl-pyrrol-3-yl]ethanone] | > 80
3 | COc1ccc(NC(=O)CSc2ccc(-c3ccco3)nn2)cc1OC [MLS-0374858.0001] | 17.7
4 | CCCCNC(=O)c1sc(=S)n2c1[nH]c(=O)c1ccccc12 [N-butyl-5-oxo-1-thioxo-4,5-dihydro[1,3]thiazolo[3,4-a]quinazoline-3-carboxamide] | 16.1
5 | CCCC(=O)NC1=C(Cl)C(=O)c2ccccc2C1=O | 3.06
6 | CC(C)(C=O)C1=CC(=O)c2ccccc2C1=O [2-(1,4-dioxo-2-naphthalenyl)-2-methylpropanal] | > 80
7 | CC(C)c1nc2oc3c(O)ncnc3c2c2c1COC(C)(C)C2 [MLS000779024] | 5.26
8 | CCc1ccc2c(c1)C(NC(C)=O)C(=O)N2CCN1CCOCC1 (stereo not drawn) [MLS001215951] | > 80
9 | CCC(C)C(N)C1=NC(C(=O)N[C@@H](CC(C)C)C(=O)N[C@H](CCC(=O)O)C(=O)N[C@H](C(=O)N[C@H]2CCCCNC(=O)[C@H](CC(N)=O)NC(=O)[C@@H](CC(=O)O)NC(=O)[C@H](Cc3c[nH]cn3)NC(=O)[C@@H](Cc3ccccc3)NC(=O)[C@H]([C@@H](C)CC)NC(=O)[C@@H](CCCN)NC2=O)[C@@H](C)CC)CS1 (stereo partly drawn) [MLS002207255] (X1-L[dE]IK[dOrn]I[dF]H[dD]N; lactam 4-C) | > 80
10 | Cc1cc(C)n2nc(SCc3nnc(SCc4ccccc4C)s3)nc2n1 [5,7-dimethyl-2-[({5-[(2-methylbenzyl)sulfanyl]-1,3,4-thiadiazol-2-yl}methyl)sulfanyl][1,2,4]triazolo[1,5-a]pyrimidine] | 3.71
11 | CCOC(=O)c1ccc(NC2=CC(=O)C(=O)c3ccccc32)cc1 | > 80
12 | CC(=O)n1cc(N(C(=O)CCl)c2ccc([N+](=O)[O-])cc2)c2ccccc21 [2-chloranyl-N-(1-ethanoylindol-3-yl)-N-(4-nitrophenyl)ethanamide] | > 80
13 | CC(Nc1cc(O)c2cccnc2c1O)C(=O)c1ccccc1 (stereo not drawn) | 75.1
14 | CCc1nc2c(c(=O)c3ccccc3n2C)c(=O)n1-c1ccc(F)cc1 [SMR000221205] | 8.41
15 | O=S(=O)(O)c1ccc(O)c2cc(Nc3ccccc3)ccc12 | > 80
16 | Cc1ccc(N2C(=O)NC(=O)C(=Cc3cc(C)n(-c4sc5c(c4C#N)CCCC5)c3C)C2=O)cc1 | > 80
17 | O=C(O)c1ccc(S(=O)(=O)N=C2C=C(Nc3ccccc3F)C(=O)c3ccccc32)cc1 | 6.02
18 | [H]/N=C(\N/C(=N/[H])NCCCCCCNC(=N)NC(=N)Nc1ccc(Cl)cc1)Nc1ccc(Cl)cc1 [2-[amino-[6-[[amino-[(E)-[amino-(4-chloroanilino)methylidene]amino]methylidene]amino]hexylimino]methyl]-1-(4-chlorophenyl)guanidine] | > 80
19 | Cc1ccc(S(=O)(=O)N=C2C=C(Nc3cccc(C(=O)O)c3)C(=O)c3ccccc32)cc1 [MLS000948051] | 6.79
20 | CC(C)(C)c1c(Cl)c(O)c(-c2ccccc2)c(=O)n1-c1ccccc1 [2-tert-butyl-3-chloranyl-6-oxidanyl-1,5-diphenyl-pyridin-4-one] | > 80
21 | Cc1[nH]c2c(=O)c3c(c(=O)c=2[nH]c1C)C1C=CC3CC1 [MLS002701599] | 2.08
22 | NS(=O)(=O)c1ccc(N=Nc2c(=O)[nH]n3c(=O)c4c([nH]c23)CCCC4)cc1 [SMR000231775] | 12.4
23 | CC(=O)N(C1=C(Cl)C(=O)c2ccccc2C1=O)C1CCCCC1 | 10.2
24 | Cc1cc2nnc(SCC(=O)Nc3cc(S(=O)(=O)N4CCOCC4)ccc3Cl)n2c2ccccc12 [N-(2-chloro-5-morpholin-4-ylsulfonylphenyl)-2-[(5-methyl-[1,2,4]triazolo[4,3-a]quinolin-1-yl)sulfanyl]acetamide] | 18
25 | O=C(/C=C/c1ccco1)NCC(=O)NNC1=c2ccccc2=NC1=O [MLS001075666] | > 80
26 | CNCc1ccccc1Sc1cc(O)ccc1O [(Z)-2-butenedioic acid;2-[[2-(methylaminomethyl)phenyl]thio]benzene-1,4-diol] | 4.58

Row | SMILES | IC50 [µM]
27 | Cc1cccc2c1=NC(=O)C=2NNC(=O)c1ccc(NS(=O)(=O)c2cccs2)cc1 [SMR001246714] | 52.6
28 | N#CC(C(=O)CCl)c1nc2c(s1)CCc1ccccc1-2 (stereo not drawn) [MLS001171530] | 38.3
29 | CC(C)c1ccc(S(=O)(=O)N=C2C=C(Sc3nnc[nH]3)C(=O)c3ccccc32)cc1 [4-isopropyl-N-[(1Z)-4-oxo-3-(1H-1,2,4-triazol-3-ylthio)naphthalen-1(4H)-ylidene]benzenesulfonamide] | 5.87
30 | O=C(CSc1nnc(-c2cccnc2)[nH]1)Nc1ccnc2ccccc12 [2-[(5-pyridin-3-yl-1H-1,2,4-triazol-3-yl)sulfanyl]-N-quinolin-4-yl-ethanamide] | 11
31 | CCC(c1ccccc1)C(CC)c1cc(O)c(O)c(O)c1 (stereo not drawn) [5-(4-phenylhexan-3-yl)benzene-1,2,3-triol] | > 80
32 | Cc1cccc(-n2c3nc(=O)[nH]c(=O)c-3cc3cc([N+](=O)[O-])ccc32)c1 | > 80
33 | CCCCC(CC)CNC(=N)NC(=N)NCCCCCCNC(=N)NC(=N)NCC(CC)CCCC (stereo not drawn) [MLS002153995] | 38.7
34 | O=C1C=CC(=O)c2c(O)c(CO)c(CO)c(O)c21 [5,8-dihydroxy-6,7-bis(hydroxymethyl)naphthalene-1,4-dione] | > 80
35 | COc1cc(C2c3c([nH]c(=O)[nH]c3=O)Nc3ccc4ccccc4c32)cc(OC)c1OC (stereo not drawn) [MLS000663320] | > 80
36 | O=C1C(Cl)=C(N2CCC(C(=O)O)CC2)C(=O)c2ccccc21 [1-(3-chloro-1,4-dioxo-2-naphthalenyl)-4-piperidinecarboxylic acid] | 13.5
37 | O=C(CSc1n[nH]c(-c2cccnc2)n1)Nc1ccc([N+](=O)[O-])cc1Br [N-(2-bromo-4-nitrophenyl)-2-[(5-pyridin-3-yl-1H-1,2,4-triazol-3-yl)sulfanyl]acetamide] | 5.71
38 | COc1cc(/C=C2/C(=O)NN(c3ccc(Cl)c(Cl)c3)C2=O)cc([N+](=O)[O-])c1O [SMR000554908] | > 80
39 | CC1=NOC(=O)/C1=C\c1ccc(-c2ccc(Cl)cc2Cl)o1 [4-{[5-(2,4-dichlorophenyl)-2-furyl]methylene}-3-methyl-5(4H)-isoxazolone] | > 80
40 | COc1ccc(Cn2c(O)c3[nH]cccc-3c2=O)cc1 | > 80
41 | Cc1cc(C=C2C(=O)NC(=O)N(c3ccc(Cl)cc3)C2=O)c(C)n1-c1sc2c(c1C#N)CCCC2 [SMR000211212] | > 80
42 | O=Cc1[nH]c2ccccc2c1N(C(=O)CCl)c1ccccc1 [MLS001029456] | > 80
43 | CN1c2ccc(C=O)c3c(C=O)ccc(c23)N(C)C1(C)C [1,2,2,3-tetramethyl-2,3-dihydro-1H-perimidine-6,7-dicarbaldehyde] | 18.8
44 | O=C(C1=C(c2ccccc2)C(=O)c2ccccc2C1=O)c1ccccc1 [2-benzoyl-3-phenylnaphthoquinone] | 7.24
45 | NC1=C(Br)C(=O)c2ncccc2C1=O | 13.8
46 | Cc1cc(C)c(S(=O)(=O)Nc2cc(SCC(=O)O)c(O)c3ccccc23)cc1C [2-[1-hydroxy-4-[(2,4,5-trimethylphenyl)sulfonylamino]naphthalen-2-yl]sulfanylacetic acid] | 14.2
47 | CCn1cc(C(=O)NCc2ccc3c(c2)OCO3)c2cc(OC)c(OC)cc2c1=O [2-ethyl-1-keto-6,7-dimethoxy-N-piperonyl-isoquinoline-4-carboxamide] | 18.9
48 | O=C(O)CSc1cc(NS(=O)(=O)c2ccc(Cl)cc2)c2ccccc2c1O [2-[4-[(4-chlorophenyl)sulfonylamino]-1-hydroxynaphthalen-2-yl]sulfanylacetic acid] | 16.7
49 | O=C(NC1=C(NC2CCS(=O)(=O)C2)C(=O)c2ccccc2C1=O)c1ccccc1 (stereo not drawn) [N-[3-[(1,1-dioxo-3-thiolanyl)amino]-1,4-dioxo-2-naphthalenyl]benzamide] | 6.33
50 | Oc1ccc(CN=Nc2ncc(Br)cn2)c(O)c1 | > 80
51 | O=C(CSc1nnc(CCCN2C(=O)c3cccc4cccc(c34)C2=O)n1-c1ccccc1)N1CCCCC1 | 9.74
52 | CCC1=NN2C(=N)/C(=C\c3ccc(OCc4cc(=O)n5nc(CC)sc5n4)c(OC)c3)C(=O)N=C2S1 [2-ethyl-7-({4-[(E)-(2-ethyl-5-imino-7-oxo-5H-[1,3,4]thiadiazolo[3,2-a]pyrimidin-6(7H)-ylidene)methyl]-2-methoxyphenoxy}methyl)-5H-[1,3,4]thiadiazolo[3,2-a]pyrimidin-5-one] | > 80

Same assay, conditions: inactive by the depositor's call

Row | SMILES | IC50 [µM]
53 | Cc1ccc(-n2c3nc(=O)[nH]c(=O)c-3cc3cc([N+](=O)[O-])ccc32)cc1C | 36.6
54 | O=C1C(Cl)=C(N2CCCCC2)C(=O)C(Cl)=C1c1cnc(N2CCCCC2)s1 [MLS000550549] | 71.6
55 | COC1=CC(=O)C(C2CC(=O)c3c(O)cc(O)cc3O2)=CC1=O (stereo not drawn) [SMR001565628] | 35.9
56 | COC(=O)c1ccc(NCc2cc(O)ccc2O)cc1 [4-[(2,5-dihydroxyphenyl)methylamino]benzoic acid methyl ester] | 21.3
57 | CCN(CC)CCNc1cc(C)nc2c1C(=O)C(=O)C=C2N1CCCCC1 [4-[2-(diethylamino)ethylamino]-2-methyl-8-piperidin-1-yl-quinoline-5,6-dione] | 38.3
58 | O=S(=O)(Nc1ccc(O)c2ccccc12)c1cccs1 [N-(4-oxidanylnaphthalen-1-yl)thiophene-2-sulfonamide] | 55.3
59 | CCN(CC)Cc1cc(O)c(CN(CC)CC)cc1O [2,5-bis(diethylaminomethyl)benzene-1,4-diol] | 55.3
60 | COC(=O)c1ccccc1NC1=CC(=NS(=O)(=O)c2cccs2)c2ccccc2C1=O [methyl 2-[[(4E)-1-oxidanylidene-4-thiophen-2-ylsulfonylimino-naphthalen-2-yl]amino]benzoate] | 57
61 | CN(C)c1ccc(Cc2cc3c(O)ccc(O)c3cc(Cc3ccc(N(C)C)cc3)c2=O)cc1 [SMR001565845] | 73.6
62 | COP(=O)(OC)c1ccc(NCc2cc(O)ccc2O)cc1 [MLS002702382] | 26.2
63 | O=S(=O)(Nc1cc(Sc2nc[nH]n2)c(O)c2ccccc12)c1ccccc1 [N-[4-oxidanyl-3-(1H-1,2,4-triazol-5-ylsulfanyl)naphthalen-1-yl]benzenesulfonamide] | 57.8
